Results published in ChEMBL document CHEMBL4831522, “Structure-Based Optimization of Quinazolines as Cruzain and TbrCATL Inhibitors” (J Med Chem, 2021).

How the values were obtained:
[1] = test system: Trypanosoma brucei brucei; assay: Antitrypanosomal activity against Trypanosoma brucei brucei Lister 427 bloodstream forms measured after 72 hrs by SYBR green dye based assay; format: functional, organism-based; settings: Lister 427, 72 h
Cruzipain [2] = molecular target: T1, Cruzipain (Trypanosoma cruzi, UniProt P25779); assay: Inhibition of recombinant Trypanosoma cruzi cruzain using Z-FR-AMC as substrate by fluorometry
[3] = molecular target: Rhodesain (Trypanosoma brucei rhodesiense) (UniProt Q95PM0); assay: Inhibition of recombinant Trypanosoma brucei rhodesiense MVAT4 rhodesain expressed in Pichia pastoris at 100 uM using Z-FR-AMC as substrate by fluorometry relative to control
[4] = molecular target: Cruzipain (Trypanosoma cruzi) (UniProt P25779); assay: Inhibition of recombinant Trypanosoma cruzi cruzain using Z-FR-AMC as substrate and compound-enzyme complex preincubated for 5 mins in presence of 0.01% Triton-X100 by fluorometry relative to control
[5] = molecular target: Cruzipain (Trypanosoma cruzi) (UniProt P25779); assay: Inhibition of recombinant Trypanosoma cruzi cruzain using Z-FR-AMC as substrate and compound-enzyme complex preincubated for 5 mins in presence of 0.001% Triton-X100 by fluorometry relative to control
[6] = molecular target: Cruzipain (Trypanosoma cruzi) (UniProt P25779); assay: Inhibition of recombinant Trypanosoma cruzi cruzain using Z-FR-AMC as substrate and compound-enzyme complex preincubated for 5 mins in presence of 0.1% Triton-X100 by fluorometry relative to control
[7] = Cytotoxicity against mouse C2C12 cells; format: cell-based
Trypanosoma cruzi = assay: Trypanocidal activity against amastigotes form of Trypanosoma cruzi CA-I/72 infected in mouse C2C12 cells assessed as inhibition of parasite replication incubated for 48 hrs by DAPI staining based microscopic analysis; format: functional, organism-based; settings: CA-I/72, C2C12, 48 h
[8] = molecular target: Cruzipain (Trypanosoma cruzi) (UniProt P25779); assay: Inhibition of recombinant Trypanosoma cruzi cruzain at 100 uM using Z-FR-AMC as substrate by fluorometry relative to control
[9] = Selectivity index, ratio of CC50 for cytotoxicity against mouse C2C12 cells to EC50 for trypanocidal activity against Trypanosoma cruzi […] infected in mouse C2C12 cells; format: toxicity, cell-based; settings: read-out: Selectivity Index
[10] = molecular target: Cruzipain (Trypanosoma cruzi) (UniProt P25779); assay: Inhibition of recombinant Trypanosoma cruzi cruzain using Z-FR-AMC as substrate when compound was preincubated for 5 mins in presence of BSA and 0.001% Triton-X100 followed by further incubation for 5 mins in presence of enzyme relative to control; settings: time 10.0 min
Rhodesain = Rhodesain (Trypanosoma brucei rhodesiense, UniProt Q95PM0); assay: Inhibition of recombinant Trypanosoma brucei rhodesiense MVAT4 rhodesain expressed in Pichia pastoris using Z-FR-AMC as substrate by fluorometry
[11] = molecular target: Rhodesain (Trypanosoma brucei rhodesiense) (UniProt Q95PM0); assay: Inhibition of recombinant Trypanosoma brucei rhodesiense MVAT4 rhodesain expressed in Pichia pastoris at 20 uM using Z-FR-AMC as substrate by fluorometry relative to control
[12] = molecular target: Cruzipain (Trypanosoma cruzi) (UniProt P25779); assay: Inhibition of recombinant Trypanosoma cruzi cruzain at 20 uM using Z-FR-AMC as substrate by fluorometry relative to control
Cruzipain [13] = molecular target: T1, Cruzipain; assay: Inhibition of recombinant Trypanosoma cruzi cruzain using Z-FR-AMC as substrate preincubated for 10 mins followed by substrate addition by fluorometry
[14] = molecular target: Cruzipain (Trypanosoma cruzi) (UniProt P25779); assay: Inhibition of recombinant Trypanosoma cruzi cruzain at 50 uM using Z-FR-AMC as substrate preincubated for 10 mins followed by substrate addition by fluorometry relative to control
[15] = molecular target: Rhodesain (Trypanosoma brucei rhodesiense) (UniProt Q95PM0); assay: Inhibition of recombinant Trypanosoma brucei rhodesiense MVAT4 rhodesain expressed in Pichia pastoris at 50 uM using Z-FR-AMC as substrate preincubated for 10 mins followed by substrate addition by fluorometry relative to control
[16] = molecular target: Rhodesain (Trypanosoma brucei rhodesiense) (UniProt Q95PM0); assay: Inhibition of recombinant Trypanosoma brucei rhodesiense MVAT4 rhodesain expressed in Pichia pastoris at 1 uM using Z-FR-AMC as substrate by fluorometry relative to control

Chain of Rhodesain (Q95PM0 whole entry): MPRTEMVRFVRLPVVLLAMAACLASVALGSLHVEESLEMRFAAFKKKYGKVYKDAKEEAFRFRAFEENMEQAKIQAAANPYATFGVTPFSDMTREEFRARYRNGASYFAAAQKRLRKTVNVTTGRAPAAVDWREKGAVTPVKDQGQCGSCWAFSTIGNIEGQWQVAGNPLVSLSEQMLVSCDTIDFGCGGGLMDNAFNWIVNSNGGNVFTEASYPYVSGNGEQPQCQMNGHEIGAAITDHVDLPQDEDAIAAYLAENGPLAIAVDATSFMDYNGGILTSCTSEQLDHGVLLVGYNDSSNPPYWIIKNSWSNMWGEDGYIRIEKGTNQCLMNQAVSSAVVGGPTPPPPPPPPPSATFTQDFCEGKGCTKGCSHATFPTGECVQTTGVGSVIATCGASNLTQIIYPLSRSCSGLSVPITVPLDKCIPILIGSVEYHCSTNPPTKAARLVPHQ
Chain of Rhodesain (Trypanosoma brucei rhodesiense) (Q95PM0 1-450): as the sequence (Q95PM0 whole entry) above
Chain of Cruzipain (Trypanosoma cruzi) (P25779 123-467 limits assumed): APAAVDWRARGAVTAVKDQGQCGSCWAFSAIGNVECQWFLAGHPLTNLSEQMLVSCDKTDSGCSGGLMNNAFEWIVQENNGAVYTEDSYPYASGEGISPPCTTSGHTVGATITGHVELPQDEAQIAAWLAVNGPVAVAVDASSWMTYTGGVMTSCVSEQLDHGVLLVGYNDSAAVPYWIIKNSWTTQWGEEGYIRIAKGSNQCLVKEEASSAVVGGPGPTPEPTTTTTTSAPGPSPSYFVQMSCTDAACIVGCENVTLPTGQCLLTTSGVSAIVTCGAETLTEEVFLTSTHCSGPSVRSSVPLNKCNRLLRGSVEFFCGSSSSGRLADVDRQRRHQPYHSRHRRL
T1 sequence (P25779 whole entry): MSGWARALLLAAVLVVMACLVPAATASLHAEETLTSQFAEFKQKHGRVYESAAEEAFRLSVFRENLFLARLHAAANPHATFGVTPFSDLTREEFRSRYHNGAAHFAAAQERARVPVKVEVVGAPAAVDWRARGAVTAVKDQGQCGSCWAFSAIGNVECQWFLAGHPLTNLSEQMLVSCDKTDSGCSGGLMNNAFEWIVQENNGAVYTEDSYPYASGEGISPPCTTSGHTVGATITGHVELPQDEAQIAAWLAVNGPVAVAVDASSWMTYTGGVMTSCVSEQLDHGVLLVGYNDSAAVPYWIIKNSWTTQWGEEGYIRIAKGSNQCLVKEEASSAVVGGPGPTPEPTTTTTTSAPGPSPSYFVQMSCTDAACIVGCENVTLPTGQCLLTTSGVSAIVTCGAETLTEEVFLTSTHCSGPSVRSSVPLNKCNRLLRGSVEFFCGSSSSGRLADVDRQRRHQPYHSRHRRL

| Structure (SMILES) | EC50 [1] [µM] | IC50 (Cruzipain [2]) [µM] | inhibition [3] [%] | inhibition [4] [%] | inhibition [5] [%] | inhibition [6] [%] | CC50 [7] [µM] | EC50 (Trypanosoma cruzi) [nM] | inhibition [8] [%] | selectivity ratio [9] | inhibition [10] [%] | IC50 (Rhodesain) [µM] | inhibition [11] [%] | inhibition [12] [%] | IC50 (Cruzipain [13]) [µM] | inhibition [14] [%] | inhibition [15] [%] | inhibition [16] [%] |
| --- | --- | --- | --- | --- | --- | --- | --- | --- | --- | --- | --- | --- | --- | --- | --- | --- | --- | --- |
| O=C(c1ccc(Nc2nc(NCCN3CCOCC3)c3ccccc3n2)cc1)N1CCOCC1 | > 50 | 13.5 | 36 | 63 | 49 | 73 | > 10 | 15000 | 85 | > 1 | 42 | – | – | – | – | – | – | – |
| O=C(Nc1ccccc1)c1ccc(Nc2nc(NCc3ccccc3)c3ccccc3n2)cc1 | > 50 | – | – | 54 | 100 | 4 | > 10 | 1800 | – | > 6 | 8 | – | – | – | – | – | – | – |
| Cn1cnc2c(NCc3ccccc3)nc(Nc3ccc(Cl)cc3)nc21 | 18.4 | – | 5 | – | – | – | > 10 | 12000 | – | > 1 | – | – | – | – | – | – | – | – |
| O=C(Nc1ccccc1)c1ccc(Nc2nc(NCCN3CCOCC3)c3ccccc3n2)cc1 | 2.7 | – | 29 | – | – | – | > 10 | 800 | 84 | > 12 | – | – | – | – | – | – | – | – |
| c1ccc(CNc2nc(Nc3nccs3)nc3ccccc23)cc1 | > 50 | 16 | 100 | 60 | 100 | 22 | > 10 | 5600 | 100 | > 2 | 53 | 12.5 | – | – | – | – | – | – |
| OCCCNc1nc(Nc2ccc(Cl)cc2)nc2ccccc12 | 9 | 7.3 | 63 | 36 | 47 | 35 | > 10 | 250 | 87 | > 40 | 35 | – | – | – | – | – | – | – |
| Clc1ccc(Nc2nccc(NCc3ccccc3)n2)cc1 | 25 | – | 10 | – | – | – | > 10 | 7000 | – | > 1 | – | – | 10 | 34 | – | – | – | – |
| OCCCNc1nc(NCCN2CCOCC2)c2ccccc2n1 | > 50 | – | 22 | – | – | – | > 10 | 35000 | 67 | > 0.3 | – | – | – | – | – | – | – | – |
| c1ccc(Nc2nc(Nc3ccccc3)c3ccccc3n2)cc1 | 16.3 | – | – | 84 | 71 | 81 | > 10 | 900 | – | > 11 | 62 | – | – | – | 14 | 30 | 14 | – |
| Clc1ccc(Nc2nc(NCc3ccccc3)c3ccccc3n2)cc1 | 93 | 2.4 | – | 48 | 42 | 1 | 10 | 500 | – | 21 | 35 | 33 | – | 78 | – | – | – | – |
| N=C(N)c1ccc(OCCCCCOc2ccc(C(=N)N)cc2)cc1 [PENTAMIDINE] | 0.026 | – | – | – | – | – | – | – | – | – | – | – | – | – | – | – | – | – |
| CC(C)C[C@H](NC(=O)[C@@H]1O[C@H]1C(=O)O)C(=O)NCCCCN=C(N)N | – | 0.028 | – | – | – | – | – | – | – | – | – | 0.0037 | – | – | – | – | – | 87 |
| Cn1cnc2c(NCc3ccccc3)nc(Nc3ccccc3)nc21 | 23.8 | – | 11 | – | – | – | > 10 | 2200 | – | > 5 | – | – | – | – | – | – | – | – |
